Marks after values point to notes of the source that are not given here.
Key:
[1] = system: non-tumor-bearing immunocompetent FVB mice; experiment: Biodistribution of lanthanide chloride salts LnCl3 (multiplexed ICP-MS); type: in vivo; conditions: for Tissue uptake: Blood / Tissue uptake: Bone / Tissue uptake: Brain / Tissue uptake: Heart / Tissue uptake: Intestines / Tissue uptake: Kidneys / Tissue uptake: Liver / Tissue uptake: Lung / Tissue uptake: Muscle / Tissue uptake: Pancreas / Tissue uptake: Salivary glands / Tissue uptake: Spleen / Tissue uptake: Stomach: non-tumor-bearing mice
AR42J tumor cells = experiment: In vitro cell uptake of lanthanide chloride salts; type: cell-based, rat; conditions: 1 h incubation
Method: (§1) A mixture of equal molar amounts of the lanthanide chloride salts (100 nM stock solutions of ^natLuCl3, ^natTbCl3, ^natGdCl3, and ^natEuCl3, diluted in saline with an adjusted pH value to 3.5‒4.0) was prepared to obtain a final concentration of 10 pmol/mL (2.5 pmol/mL per lanthanide salt) and tested with AR42J, PC-3 PIP and KB tumor cells according to the same protocol as described for the Ln-labeled biomolecules (Supplementary Material). Analogous in vitro cell uptake studies were also performed with lanthanide metal complexes of diethylenetriaminepentaacetic acid (DTPA, Sigma Aldrich Chemie, Steinheim, Germany) to obtain a final concentration of 10 pmol/mL (2.5 pmol/mL per lanthanide complex) (Supplementary Material).
(§2) Cell uptake studies were performed in triplicate in 3‒6 independent experiments and the results presented as the average ± standard deviation (SD). Data were normalized to the values measured for the ^175Lu-labeled tumor targeting agent or [^175Lu]LuCl3, which were set as 100% and zero was defined as 0%. Statistical significance of the normalized data was assessed for the comparison of the values obtained for terbium, gadolinium and europium analogues with those obtained for the lutetium counterparts by applying one-way ANOVA with the Dunnett’s post-test using GraphPad Prism software (version 8). A p-value of < 0.05 was considered statistically significant.
(§3) Methods: The same experimental setting as described for Ln-labeled biomolecules was applied to perform uptake and internalization studies with the lanthanide salts (LnCl3; Ln = ^natLu, ^natTb, ^natGd and ^natEu). The applied solution was a mixture of the four lanthanide salts yielding a final concentration of 0.4 µM. Of these mixtures, 25 μL were added to the corresponding well with tumor cells. The cells were incubated for 1 h and 4 h, respectively, at 37 °C and 5% CO2. After incubation, the tumor cells were treated as described for the Ln-labeled biomolecules and processed for the measurement with ICP-MS.

PC-3 PIP tumor cells = experiment: In vitro cell uptake of lanthanide chloride salts; type: cell-based, human; conditions: both incubation times
Method: as §1, §2, §3

[2] = 24 h p.i., estimated ratios (organ <0.5% ID/g)
[3] = 96 h p.i., estimated ratios (organ <0.5% ID/g)

## [Cl][Gd]([Cl])[Cl] [[^157Gd]GdCl3]
[1]; 1 h p.i.
  Organ ratios: Blood-to-bone: 0.37 ± 0.01
  Organ ratios: Blood-to-liver: 0.14 ± 0.02
  Organ ratios: Liver-to-bone: 2.6 ± 0.4
  Tissue uptake: Blood: 4.9 ± 0.3 % ID/g
  Tissue uptake: Bone: 13 ± 1 % ID/g
  Tissue uptake: Brain: 1.0 ± 0.6 % ID/g
  Tissue uptake: Heart: 5.0 ± 1.7 % ID/g
  Tissue uptake: Intestines: 2.5 ± 0.8 % ID/g
  Tissue uptake: Kidneys: 8.0 ± 2.0 % ID/g
  Tissue uptake: Liver: 34 ± 4 % ID/g
  Tissue uptake: Lung: 4.8 ± 0.4 % ID/g
  Tissue uptake: Muscle: 1.6 ± 0.6 % ID/g
  Tissue uptake: Pancreas: 2.2 ± 0.4 % ID/g
  Tissue uptake: Salivary glands: 2.8 ± 1.3 % ID/g
  Tissue uptake: Spleen: 6.3 ± 0.9 % ID/g
  Tissue uptake: Stomach: 6.2 ± 1.7 % ID/g
[1]; 24 h p.i.
  Organ ratios: Liver-to-bone: 2.2 ± 0.5
  Tissue uptake: Blood: <0.5 % ID/g
  Tissue uptake: Bone: 14 ± 2 % ID/g
  Tissue uptake: Brain: <0.5 % ID/g
  Tissue uptake: Heart: 1.2 ± 0.1 % ID/g
  Tissue uptake: Intestines: 0.71 ± 0.04 % ID/g
  Tissue uptake: Kidneys: 4.0 ± 0.9 % ID/g
  Tissue uptake: Lung: 1.3 ± 0.1 % ID/g
  Tissue uptake: Muscle: 1.1 ± 0.8 % ID/g
  Tissue uptake: Pancreas: 0.61 ± 0.11 % ID/g
  Tissue uptake: Salivary glands: 0.77 ± 0.16 % ID/g
  Tissue uptake: Spleen: 5.7 ± 1.1 % ID/g
  Tissue uptake: Stomach: 2.6 ± 0.1 % ID/g
[1]; [2]
  Organ ratios: Blood-to-bone: <0.03^*
  Organ ratios: Blood-to-liver: <0.02^*
[1]; 24 h p.i., listed as gadolinium
  Tissue uptake: Liver: 31 ± 6 % ID/g
[1]; 24 h p.i., listed as natGd
  Tissue uptake: Liver: ~ 31 % ID/g
[1]; 96 h p.i.
  Organ ratios: Liver-to-bone: 1.1 ± 0.2
  Tissue uptake: Blood: <0.5 % ID/g
  Tissue uptake: Bone: 17 ± 3 % ID/g
  Tissue uptake: Brain: <0.5 % ID/g
  Tissue uptake: Heart: 1.2 ± 0.1 % ID/g
  Tissue uptake: Intestines: 0.66 ± 0.07 % ID/g
  Tissue uptake: Kidneys: 2.0 ± 0.1 % ID/g
  Tissue uptake: Liver: 18 ± 1 % ID/g
  Tissue uptake: Lung: 1.1 ± 0.2 % ID/g
  Tissue uptake: Muscle: 0.51 ± 0.12 % ID/g
  Tissue uptake: Pancreas: 0.53 ± 0.10 % ID/g
  Tissue uptake: Salivary glands: 0.60 ± 0.08 % ID/g
  Tissue uptake: Spleen: 3.6 ± 0.3 % ID/g
  Tissue uptake: Stomach: 3.1 ± 0.8 % ID/g
[1]; [3]
  Organ ratios: Blood-to-bone: <0.03^*
  Organ ratios: Blood-to-liver: <0.03^*
AR42J tumor cells
  Detected fraction after acid-wash compared with lutetium: significantly lower
PC-3 PIP tumor cells
  Fraction retained after acid-wash compared with lutetium: higher

Reference: article PMC11839852, “Preclinical comparison of (radio)lanthanides using mass spectrometry and nuclear imaging techniques: biodistribution of lanthanide-based tumor-targeting agents and lanthanides in ionic form” (European Journal of Nuclear Medicine and Molecular Imaging, 2024)
